In the COVID Moonshot data (paper PMC11187573), “Identification of SARS-CoV-2 Mpro inhibitors through deep reinforcement learning for de novo drug design and computational chemistry approaches” (RSC Medicinal Chemistry, 2024):

Key:
[1] = target: SARS-CoV-2 Main Protease (SARS-CoV-2) (UniProt P0DTD1); conditions: for inhibition: 50.0 µM
[2] = target: SARS-CoV-2 Main Protease (SARS-CoV-2) (UniProt P0DTD1)

| Structure (SMILES) | inhibition ([2]; 20.0 µM) [%] | inhibition ([2]; 50.0 µM) [%] | further results |
| --- | --- | --- | --- |
| C[C@@H]1C[C@@H](C(=O)Nc2cncc3ccccc23)c2cc(Cl)ccc2O1 (stereo in doubt) |  |  | IC50 [1]: 0.524 µM |
| O=C(Cn1nnc2ccccc21)N(Cc1ccccc1)c1ccc(N2CCOCC2)cc1 |  |  | IC50 [1]: 18.2 µM |
| COc1cccc(C2=N/C(=C/c3sccc3C)C(=O)O2)c1 |  |  | IC50 [1]: 5.07 µM; inhibition [1]: 77.6% |
| O=C(Nc1cncc2ccccc12)C1=CCCc2ccc(Cl)cc21 |  |  | IC50 [1]: 0.0811 µM |
| Cc1cc(C(=O)CCl)c(C)n1CC1COc2ccccc2O1 (centres undefined) |  |  | IC50 [1]: 4.15 µM; inhibition [1]: 82.2% |
| O=C1C(=O)N(Cc2ccccc2)c2ccc([N+](=O)[O-])cc21 |  |  | IC50 [1]: 26.9 µM |
| Cc1cc2c(c(O)c1-c1c(C)cc(O)c3c1C(=O)C=CC3=O)C(=O)C=CC2=O |  |  | IC50 [1]: 8.41 µM; inhibition [1]: 100% |
| Cc1ccc(NC2=C(c3ccccc3)C(=O)N(Cc3cccnc3)C2=O)cc1Cl |  |  | IC50 [1]: 32.2 µM |
| CC(C)(C)c1ccc(N(C(=O)c2cn[nH]c2)C(C(=O)NCCc2cccc(F)c2)c2cccnc2)cc1 (centres undefined) |  |  | IC50 [1]: 4.84 µM; inhibition [1]: 100% |
| Cc1ccc(N(Cc2cscn2)C(=O)Cc2cncc3ccccc23)cc1 |  |  | IC50 [1]: 13.6 µM |
| CC(C)Cn1cc(NC(=O)NC2CCCc3ccccc32)c2ccccc2c1=O (centres undefined) | 26.4 | 12.2 |  |
| COc1cc(Br)ccc1Nc1cc(Cl)cc(CC(=O)Nc2cncc3ccccc23)c1 |  |  | IC50 [2]: 1.39 µM |
| CC(C)Cn1cc(NC(=O)NC2CCCCCC2)c2ccccc2c1=O | 4.79 | 2.3 |  |
| Cc1noc(C)c1CCNC(=O)Nc1cn(CC(C)C)c(=O)c2ccccc12 | 39 | 94.5 |  |
| COC(=O)C(c1ccccc1Cl)N1CCC(S)/C(=C/C(=O)O)C1 (centres undefined) | -2.05 | 1.77 |  |
| COc1ccc(OC)c(CCNC(=O)Nc2cn(CC(C)C)c(=O)c3ccccc23)c1 | 1.12 | 2.5 |  |
| CC(C)Oc1ccc(N(C(=O)c2cnc[nH]2)C(C(=O)NCCc2cccc(F)c2)c2cccnc2)cc1 (centres undefined) |  |  | IC50 [2]: 0.712 µM |
| Cc1ccc2nc(Nc3cc(Cl)cc(CC(=O)Nc4cncc5ccccc45)c3)sc2c1 |  |  | IC50 [2]: 0.45 µM |
| CC(=O)c1cccc(NC(=O)Nc2cn(C)c(=O)c3ccccc23)c1 | 22.4 | 11.9 |  |
| Cn1cc(NC(=O)NCCCN2CCc3ccccc3C2)c2ccccc2c1=O | -2.25 | 1.39 |  |

| Structure (SMILES) | inhibition ([2]; 20.0 µM) [%] | inhibition ([2]; 50.0 µM) [%] | further results |
| --- | --- | --- | --- |
| NCc1cn(CC(=O)N(Cc2ccsc2)c2ccc(N3CCOCC3)cc2)nn1 | -4.16 | -1.29 |  |
| O=C(COc1ccccc1F)Nc1ncnc2[nH]cnc12 | -6.54 | -3.69 |  |
| Cc1ccncc1NC(=O)N(C)c1cccc(Cl)c1 | 17.6 | 33.8 |  |
| COc1cc(Cl)nc(Nc2cc(Cl)cc(CC(=O)Nc3cncc4ccccc34)c2)n1 |  |  | IC50 [2]: 0.504 µM |
| COc1ccc(N2C(=O)CCS2(=O)=O)cc1S(=O)(=O)Nc1cccc2cccnc12 | 65.3 | 37.4 |  |
| Cc1cc(Cn2nnc3c(-c4ccco4)nc(N)nc32)ccc1N | 1.89 | -1.33 |  |
| O=C(O)C12CC(CNCc3ccc4c(c3)OCC4)(C1)OC2c1ccccc1 (centres undefined) | -3.12 | -4.27 |  |
| COc1ccc(NC(=O)Nc2cn(C)c(=O)c3ccccc23)cc1OC | 1.6 | 10.8 |  |
| O=C(CC1(C(=O)Nc2cncc3ccccc23)CCOc2ccc(Cl)cc21)N1CCOCC1CC(F)F (centres undefined) |  |  | IC50 [2]: 9.84 µM |
| O=C(Cn1ccnc1[N+](=O)[O-])NCc1ccccc1 | -7.12 | 4.09 |  |
| CC(C)Cn1cc(NC(=O)N2CCC(Cc3ccccc3)CC2)c2ccccc2c1=O | -4.27 | 3.43 |  |
| CN(C)C(=O)c1cc2cnc(Nc3ccc(N4CCNCC4)cn3)nc2n1C1CCCC1 | -3.84 | -4.06 |  |
| O=C1CC(C(=O)Nc2cncc3ccccc23)c2cc(Cl)cc(Cl)c2N1 (centres undefined) |  |  | IC50 [2]: 3.04 µM |
| Nc1cc(C(F)(F)F)c(-c2nc(N3CCOCC3)nc(N3CCOCC3)n2)cn1 | 5.19 | 5.97 |  |
| Cc1ccncc1NC(=O)Cc1ccc2[nH]ncc2c1 | -1.11 | 0.248 |  |
| COc1cccc2[nH]c(=O)cc(C(=O)NCCOc3ccccc3OCC3CC3)c12 |  |  | IC50 [2]: 1.92 µM |
| O=C(Nc1cncc2ccccc12)[C@@H]1COc2ccc(Cl)cc21 (stereo in doubt) |  |  | IC50 [2]: 0.555 µM |
| CC(C)Cn1cc(NC(=O)N2CCC(c3ccccc3)C2)c2ccccc2c1=O (centres undefined) | -2.21 | 0.973 |  |
| CCN(CC)S(=O)(=O)c1ccc(NC(=O)Nc2cn(C)c(=O)c3ccccc23)cc1 | 0.771 | -1.21 |  |
